{"source": "patent US9745551B2", "about": "“Mesenchymal-like stem cells derived from human embryonic stem cells, methods and uses thereof” (IMSTEM BIOTECHNOLOGY, INC., priority 2012, dated 2017)", "system": "hES cells", "test": "Embryoid body (EB) and hemangioblast formation from hESC cultured with BIO", "type": "cell-based, human", "description": "Four hESC cell lines were used: H9 (derived from WiCell Research Institute) (Thomson et al. (1998)); CT2 (derived from University of Connecticut Stem Cell Core (Lin et al. (2010)); MA09 (an FDA approved, clinical-grade cell line derived at Advanced Cell Technology, Inc.) (Klimanskaya et al. (2006)); and ES03-Envy (Envy, a GFP-labeled line, derived at ES International) (Costa et al. (2005)). These cell lines were cultured on Matrigel (BD Biosciences, San Jose, Calif.) and cultured in TeSR1 medium, (Stem Cell Technologies, Vancouver, Canada), with or without adding of 0.05-0.2 μM of BIO (6-Bromoindirubin-3′-oxime (CAS 667463-62-9)).\nhESC cells were then differentiated into EB cells and then enriched for HB as previously described (Lu et al. (2008); Lu et al. (2007)). 50-80% confluent hEs cell on the Matrigel plate were digested with Dispase (1 mg/ml for 5 to 10 minutes) and then washed with EB formation basal medium, HPGM (Lonza, Walksville, Md.), or STEMLINE I/II Hematopoietic Stell Cell Expansion Medium (Sigma, St. Louis, Mo.), or StemSpan H3000 (Stem Cell Technologies, Vancouver, Canada), or IMDM with 10% FBS, or DMEDM/F12 with 10% FBS. Cells were then cultured in EB formation medium supplemented with 50 ng/ml of VEGF (Peprotech) and 50 ng/ml of BMP4 (Stemgent) for 48 hours on ultra-low plate at a density of about 2-3 million cells/ml. After 48 hours, half the culture medium was replaced with fresh EB formation medium plus 25-50 ng/ml of bFGF.\nFour days later, EB cells formed in the medium were harvested and dissociated into single cells with TrypLE (Invitrogen) at 37° C. for 2-3 minutes. Cells were washed and resuspended at 1-5 million cells/ml in EB formation basal medium. The single cell suspension were then mixed at 1:10 with Hemangioblast Growth Medium (Stem Cell Technologies, Vancouver, Canada). […]"}
{"compound": "O=C1Nc2cc(Br)ccc2/C1=C1/Nc2ccccc2/C1=N\\O", "note": "[BIO, (2′Z,3′E)-6-Bromoindirubin-3′-oxime]", "values": [{"measurement": "size and yield of the EB culture", "setting": "BIO in the mTesr1 medium", "value": "increase"}, {"measurement": "total EB number increase", "setting": "BIO in the mTesr1 medium", "value": 3, "unit": "folds"}, {"measurement": "percentage of CD45 cell differentiation (indicator of hemangioblast differentiation efficiency)", "setting": "BIO treatment compared to traditional mTesr1 medium", "value": "tripled"}]}
